Measured values reported in patent publication US7858578B2, “Methods of inducing neuronal growth by a Fucose-α(1-2) galactose (fuc-α(1-2) gal) moiety and a lectin” (California Institute of Technology, priority 2004, dated 2010).

Tests used:
[1] = test system: hippocampal neurons; experiment: Binding of biotinylated probe to cultured hippocampal neurons (streptavidin-AlexaFluor 488 imaging); type: cell-based, rat; conditions: 3 mM, 10 μM PAO; for labeling of neurons after de-lipidation: neurons de-lipidated with MeOH/CHCl3; for binding to hippocampal neurons: 1 h, E18 neurons 23 days in vitro
Method: Hippocampal neurons were cultured using a procedure modified from Goslin and Banker, in Culturing Nerve Cells, Banker, G., Goslin, K., Eds., pp. 251-281, MIT Press: Cambridge, Mass. 1991. Briefly, the hippocampi of embryonic day 18 (E18) rats were dissected and transferred to 4.5 mL of ice-cold Calcium and Magnesium Free-Hank's Balanced Salt Solution (CMF-HBSS). Trypsin (2.5%, no EDTA) was added to 5 mL, and the tissue was incubated for 15 min at 37° C. The trypsin solution was removed and the tissue sample washed three times with 5 mL of CMF-HBSS. Cells were then dissociated from the tissue in 1 mL of CMF-HBSS by passing through a P1000 pipet tip twenty times. The cells were counted, diluted into Minimal Eagle's Medium (MEM) plus 10% fetal bovine serum, and seeded on poly-DL-ornithine-coated glass coverslips (Carolina Biological) at a density of 75 cells/mm2 (100 μL/coverslip) for 30 min. After this time, 500 μL of supplemented Neurobasal medium (47.5 mL Neurobasal medium without Lglutamine; 0.5 mL L-glutamine (200 mM); 0.5 mL penicillin/streptomycin (10,000 U/mL); 0.5 mL antibiotic-antimycotic (100× stock), 1.0 mL B-27 serum-free supplement (50× stock); 50 μL of 0.5 M kynurenic acid in 1 N NaOH) was added to each coverslip. The use of kynurenic acid to block glutamate receptor ion channels and enhance neuronal health and survival is standard protocol for neuronal cultures. Id. The cultures were maintained in 5% CO2 at 37° C. in supplemental Neurobasal medium.
After 23 days in culture, the medium was replaced, and neurons were treated with the endocytosis inhibitor phenylarsine oxide (PAO; 4 μL in DMSO, final concentration 10 μM) (Nouel, D., et al., J. Neurosci. 17:1795-1803 (1997)) and either compound III (24 μL in PBS, final concentration 3 mM), or biotin (24 μL in PBS, final concentration 3 mM), in supplemented Neurobasal medium (400 μL final volume) for 1 h at 37° C., 5% CO2. After 1 h, neurons were rinsed 2 times with PBS, fixed in 4% paraformaldehyde for 20 min at rt, washed 2 times with PBS, permeabilized in 0.3% Triton X-100 for 5 min at rt, and washed 2 times with PBS. Non-specific binding was blocked with 3% BSA for 1 h at rt and then rinsed one time with PBS. Compound III was detected with streptavidin conjugated to AlexaFluor 488 (1:200, Molecular Probes). Dye-conjugated streptavidin was added in 3% BSA for 1 h at 37° C. and the excess reagent washed off 5 times with PBS. Coverslips were then mounted onto slides with Vectashield, sealed, and imaged using confocal laser microscopy. Results can be seen in FIG. 2.
De-lipidation was performed on some samples following the protocol of Yavin, E. et al., J. Neurosci. Res. 9:229-237 (1983). Briefly, after 23 days in culture, cells were rinsed once with PBS then exposed to MeOH/CHCl3 (½ by vol.) for 15 min at −80° C. This procedure fixes the cells to the coverslip and extracts cellular lipids. After removing the MeOH/CHCl3 mixture, coverslips were dried at rt then incubated with 3% BSA for 1 hr at rt. After one rinse with PBS, neurons were treated with PAO and the procedure described above was followed.

[2] = test system: hippocampal neurons; experiment: Neurite outgrowth of hippocampal neurons treated with carbohydrate-PAA conjugates; type: cell-based, rat; conditions: FIG. 4B, concentration and valency series
Method: Hippocampal neurons were cultured using a procedure modified from Goslin and Banker, in Culturing Nerve Cells, Banker, G., Goslin, K., Eds., pp. 251-281, MIT Press: Cambridge, Mass. 1991. Briefly, the hippocampi of embryonic day 18 (E18) rats were dissected and transferred to 4.5 mL of ice-cold Calcium and Magnesium Free-Hank's Balanced Salt Solution (CMF-HBSS). Trypsin (2.5%, no EDTA) was added to 5 mL, and the tissue was incubated for 15 min at 37° C. The trypsin solution was removed and the tissue sample washed three times with 5 mL of CMF-HBSS. Cells were then dissociated from the tissue in 1 mL of CMF-HBSS by passing through a P1000 pipet tip twenty times. The cells were counted, diluted into Minimal Eagle's Medium (MEM) plus 10% fetal bovine serum, and seeded on poly-DL-ornithine-coated glass coverslips (Carolina Biological) at a density of 75 cells/mm2 (100 μL/coverslip) for 30 min. […]
The association of Fucα(1-2)Gal with potential lectins was studied to determine if it would stimulate neuronal growth. […] The cultures were incubated in 5% CO2 at 37° C. and analyzed. […]
For each experiment, 50 randomly selected cells were analyzed per coverslip using similar quantitative analysis techniques reported by Schmid et al., J. Neurosci. […] Briefly, only neurites longer than ˜10 μm and not in contact with other cells were measured using NIH Image 1.62 software. […]

Question: With `C[C@@H]1O[C@@H](O[C@H]2[C@H](OCCOCCNC(=O)CCCC[C@@H]3SC[C@@H]4NC(=O)N[C@@H]43)O[C@H](CO)[C@H](O)[C@@H]2O)[C@@H](O)[C@H](O)[C@@H]1O` [Compound III] as the compound, how does the “labeling of neurons after de-lipidation” value [1] read?
Answer: labeling was not diminished

Question: What about the “labeling of neurons after de-lipidation” value ([1]; listed as probe III) of the same compound?
Answer: does not alter the labeling

Question: And the “binding to hippocampal neurons” value [1]?
Answer: binds

Question: And the “binding to hippocampal neurons” value ([1]; listed as compound III)?
Answer: binding of compound III to the cell body and neurite processes

Question: What about the “neurite outgrowth activity” value [2] of the same compound?
Answer: only modest activity
